From patent US3931314A, “Benzophenone derivatives and process for their production” (Cassella Farbwerke Mainkur Aktiengesellschaft, priority 1972, dated 1976) come the findings set out here.

One data set concerns central nervous system. Kind of data set: climbing test on albino mice, sedative action on the central nervous system. The conditions noted are these: Mus musculus, po, read-out: Sedative action % (percentage of animals which no longer take up the climbing work); for responders at 8 mg/kg: dose 8 mg/kg p.o.; for responders at 10 mg/kg: dose 10 mg/kg p.o. The format is in vivo. How it is done: The pharmacological investigation of the sedative action on the central nervous system was carried out using the climbing tests on albino mice described by P. K. KNEIP: Arch. int. pharmacodyn 126, 238 (1960) and R. DOMENJOZ and W. THEOBALD: Arch. int. pharmacodyn 120, 450 (1959).
In the table which follows, the results of the pharmacological investigations carried out are summarised. In the last table under the heading "Sedative action %" there is given the percentage of the experimental animals which no longer take up the normally readily assumed climbing work.

Data set [1] in a line: LD50 (mouse), acute toxicity. Particulars: in vivo.

Where only a bound is given, the exact number is not on record here.

For the compound `C=CCN(CCC#N)CC(=O)Nc1ccc(Cl)cc1C(=O)c1ccccc1Cl` [2-(5-Cyano-3-allyl-3-aza-pentanamido)-2'-5-dichlor-benzophenone], the responders at 8 mg/kg in the data set on central nervous system came to 60%. The same compound showed an LD50 in data set [1] (ip) of 630 mg/kg. As for `CC(CC#N)N(C)CC(=O)N(C)c1ccc(Cl)cc1C(=O)c1ccccc1` (stereo not shown) [2-(5-Cyano-N,3,4-trimethyl-3-aza-pentanamido)-5-chlor-benzophenone], the responders at 9 mg/kg with central nervous system (dose 9 mg/kg p.o.) came out at 50%. The same compound had an LD50 in data set [1] (ip) of 320 mg/kg. Regarding `CC(CC#N)NCC(=O)Nc1ccccc1C(=O)c1ccccc1` (stereo not shown) [2-(5-Cyano-4-methyl-3-aza-pentanamido)-benzophenone], in the data set with central nervous system, the responders at 10 mg/kg came to 50%. Further, in data set [1] (po), the LD50 was over 1000 mg/kg. Regarding `CCOC(=O)CCNCC(=O)N(C)c1ccc(SC)cc1C(=O)c1ccccc1` [2-(5-ethoxycarbonyl-N-methyl-3-aza-pentanamido)-5-methylmerkapto-benzophenone], the responders at 8 mg/kg with central nervous system was 60%.

On to `CN(C(=O)CNCC#N)c1ccc(Cl)cc1C(=O)c1ccccc1` [2-(4-Cyano-N-methyl-3-aza-butanamido)-5-chlor-benzophenone], for which the responders at 8 mg/kg in the data set with central nervous system came to 60%. Moreover, the LD50 in data set [1] (ip) amounted to 170 mg/kg. The like results for `CCOC(=O)CCCNCC(=O)N(C)c1ccc([N+](=O)[O-])cc1C(=O)c1ccccc1` [2-(6-ethoxycarbonyl-N-methyl-3-aza-hexanamido)-5-nitro-benzophenone] were, in that order, 60% and 650 mg/kg. For `CCCCN(CCC#N)CC(=O)N(C)c1ccc(Cl)cc1C(=O)c1ccccc1` [2-(5-Cyano-N-methyl-3-n-butyl-3-aza-pentanamido)-5-chlor-benzophenone], in that order: 80% and 360 mg/kg. The like results for `CCOC(=O)CCNCC(=O)N(C)c1ccc(C(F)(F)F)cc1C(=O)c1ccccc1` [2-(5-ethoxycarbonyl-N-methyl-3-aza-pentanamido)-5-trifluormethyl-benzophenone] were, in that order, 60% and 400 mg/kg.

With `CC(CC#N)NCC(=O)N(C)c1ccc(Cl)cc1C(=O)c1ccccc1` (stereo not shown) [2-(5-Cyano-N,4-dimethyl-3-aza-pentanamido)-5-chlor-benzophenone], the responders at 8 mg/kg with central nervous system stood at 50%. This compound registered an LD50 in data set [1] (ip) of 315 mg/kg. Take `Cc1ccc(N(C)C(=O)CNCCC#N)c(C(=O)c2ccccc2)c1` [2-(5-Cyano-N-methyl-3-aza-pentanamido)-5-methyl-benzophenone]: in the data set with central nervous system, the responders at 8 mg/kg was found to be 50%. As for `CN(CCC#N)CC(=O)N(C)c1ccc(Cl)cc1C(=O)c1ccccc1` [2-(5-Cyano-N,3-dimethyl-3-aza-pentanamido)-5-chlor-benzophenone], in the data set with central nervous system, the responders at 8 mg/kg amounted to 50%. In addition, the median lethal dose (LD50) in data set [1] (ip) is 240 mg/kg. Consider `COc1ccc(N(C)C(=O)CNCCC#N)c(C(=O)c2ccccc2)c1` [2-(5-Cyano-N-methyl-3-aza-pentanamido)-5-methoxy-benzophenone], for which, in the data set with central nervous system, the responders at 8 mg/kg stood at 50%. In the case of `CC(C#N)CN(C)CC(=O)N(C)c1ccc([N+](=O)[O-])cc1C(=O)c1ccccc1` (stereo not shown) [2-(5-Cyano-N,3-dimethyl-3-aza-hexanamido)-5-nitro-benzophenone], the responders at 10 mg/kg in the data set with central nervous system amounted to 60%. Besides, the LD50 in data set [1] (ip) was found to be 480 mg/kg; in data set [1] (po) it was 1100 mg/kg. Regarding `CN(CCCC#N)CC(=O)Nc1ccc(Cl)cc1C(=O)c1ccccc1` [2-(6-Cyano-3-methyl-3-aza-hexanamido)-5-chlor-benzophenone], the responders at 8 mg/kg in the data set with central nervous system amounted to 60%. As to `CCCC(C)(COC(N)=O)COC(N)=O` [Meprobamate, reference compound], the responders at 70 mg/kg in the data set with central nervous system (dose 70 mg/kg p.o., comparative preparation) is 50%. This compound also yielded a 50% lethal dose (LD50) in data set [1] (ip) of 620 mg/kg. `CCCCN(CCC#N)CC(=O)N(C)c1ccc([N+](=O)[O-])cc1C(=O)c1ccccc1` [2-(5-Cyano-N-methyl-3-n-butyl-3-aza-pentanamido)-5-nitro-benzophenone]: the responders at 8 mg/kg in the data set with central nervous system stood at 50%. Moreover, the median lethal dose (LD50) in data set [1] (ip) was found to be 680 mg/kg.

As for `CN(CCC(=O)O)CC(=O)Nc1ccc(Cl)cc1C(=O)c1ccccc1` [2-(5-Carboxy-3-methyl-3-aza-pentanamido)-5-chlor-benzophenone], the responders at 8 mg/kg with central nervous system was 90%. In data set [1] (ip), this compound showed an LD50 of 450 mg/kg.

Turning to `Cc1ccc(N(C)C(=O)CNC(C)CC#N)c(C(=O)c2ccccc2)c1` (stereo not shown), the responders at 8 mg/kg in the data set with central nervous system is 70%. Further, in data set [1] (ip), the LD50 turned out to be 300 mg/kg.

In the case of `COc1ccc(N(C)C(=O)CNC(C)CC#N)c(C(=O)c2ccccc2)c1` (stereo not shown) [2-(5-Cyano-N,4-dimethyl-3-aza-pentanamido)-5-methoxy-benzophenone], the responders at 8 mg/kg in the data set with central nervous system is 60%. In data set [1] (ip), the LD50 worked out at 250 mg/kg. With `CCOC(=O)CCNCC(=O)N(C)c1ccc(C)cc1C(=O)c1ccccc1` [2-(5-ethoxycarbonyl-N-methyl-3-aza-pentanamido)-5-methyl-benzophenone], the responders at 8 mg/kg in the data set with central nervous system amounted to 50%. Consider `COC(=O)CNCC(=O)N(C)c1ccc(Cl)cc1C(=O)c1ccccc1` [2-(4-Methoxycarbonyl-N-methyl-3-aza-butanamido)-5-chlor-benzophenone], for which the responders at 10 mg/kg with central nervous system was 50%. In addition, the 50% lethal dose (LD50) in data set [1] (po) came to 950 mg/kg. In the case of `CC(C#N)CNCC(=O)Nc1ccc(Cl)cc1C(=O)c1ccccc1` (stereo not shown) [2-(5-Cyano-3-aza-hexanamid0)-5-chlor-benzophenone], the responders at 8 mg/kg in the data set on central nervous system was determined as 50%. The 50% lethal dose (LD50) in data set [1] (ip) is 600 mg/kg. Take `CN(CCC#N)CC(=O)N(C)c1ccc([N+](=O)[O-])cc1C(=O)c1ccccc1` [2-(5-Cyano-N,3-dimethyl-3-aza-pentanamido)-5-nitro-benzophenone]: in the data set on central nervous system, the responders at 10 mg/kg was 50%. This compound also gave a 50% lethal dose (LD50) in data set [1] (po) of over 1000 mg/kg. `CCOC(=O)CCNCC(=O)Nc1ccc(Cl)cc1C(=O)c1ccccc1Cl` [2-(5-ethoxycarbonyl-3-aza-pentanamido)-2',5-dichlor-benzophenone]: the responders at 8 mg/kg with central nervous system was 70%.

On to `CC(CC#N)NCC(=O)N(C)c1ccccc1C(=O)c1ccccc1` (stereo not shown) [2-(5-Cyano-N,4-dimethyl-3-aza-pentanamido)-benzophenone], for which, in the data set with central nervous system, the responders at 8 mg/kg amounted to 70%. Further, in data set [1] (ip), the LD50 worked out at 320 mg/kg. Regarding `CCOC(=O)CCCNCC(=O)Nc1ccc([N+](=O)[O-])cc1C(=O)c1ccccc1` [2-(6-ethoxycarbonyl-3-aza-hexanamido)-5-nitro-benzophenone], the responders at 8 mg/kg with central nervous system was 50%.
